Reference: patent US20060040997A1, “Benzthiazole-3 oxides useful for the treatment of proliferative disorders” (priority 2003, published 2006)
Like-named read-outs stand apart in the source and are kept apart here.

Experiments:
A549 = assay: 72-h MTT cellular proliferation assay, A549; format: cell-based; conditions: Homo sapiens, A549, 72 h; read-out: Anti-proliferative activity on tumour cell lines (MTT assay) A549 IC50
Procedure: (§1) Cellular proliferation assays using human tumour cell lines (obtained from the American Type Culture Collection, 10801 University Boulevard, Manessas, Va. 20110-2209, USA) were carried out. Standard 72-h MTT (thiazolyl blue; 3-[4,5-dimethylthiazol-2-yl]-2,5-diphenyltetrazolium bromide) assays were performed (Loveland et al, Biochem. Int., 1992, 27, 501; Haselsberger et al, Anti Cancer Drugs, 1996, 7, 331). In short: cells were seeded into 96-well plates according to doubling time and incubated overnight at 37° C. Test compounds were made up in DMSO and a ⅓ dilution series prepared in 100 μL cell media, added to cells (in triplicates) and incubated for 72 h at 37° C. MTT was made up as a stock of 5 mg/mL in cell media and filter-sterilised. Media was removed from cells followed by a wash with 200 μL PBS. MTT solution was then added at 20 μL per well and incubated in the dark at 37° C. for 4 h. MTT solution was removed and cells again washed with 200 μL PBS. MTT dye was solubilised with 200 μL per well of DMSO with agitation.

human PLK1 = biological target: T1, human PLK1 (Homo sapiens, UniProt P53350); assay: PLK1 protein kinase assay (CDC25C phosphorylation, [γ-32P]-ATP); format: biochemical; conditions: read-out: PLK1 kinase inhibition IC50
T1 construct: A full-length human PLK1 (XM—047240) (amino acids 1-603) clone; His6 (N); made in house; host or cells: Sf9 insect cells (baculovirus) for PLK1; E. coli BL21(DE3) RIL for CDC25C
T1 sequence (P53350 whole entry, the tested form may be a part): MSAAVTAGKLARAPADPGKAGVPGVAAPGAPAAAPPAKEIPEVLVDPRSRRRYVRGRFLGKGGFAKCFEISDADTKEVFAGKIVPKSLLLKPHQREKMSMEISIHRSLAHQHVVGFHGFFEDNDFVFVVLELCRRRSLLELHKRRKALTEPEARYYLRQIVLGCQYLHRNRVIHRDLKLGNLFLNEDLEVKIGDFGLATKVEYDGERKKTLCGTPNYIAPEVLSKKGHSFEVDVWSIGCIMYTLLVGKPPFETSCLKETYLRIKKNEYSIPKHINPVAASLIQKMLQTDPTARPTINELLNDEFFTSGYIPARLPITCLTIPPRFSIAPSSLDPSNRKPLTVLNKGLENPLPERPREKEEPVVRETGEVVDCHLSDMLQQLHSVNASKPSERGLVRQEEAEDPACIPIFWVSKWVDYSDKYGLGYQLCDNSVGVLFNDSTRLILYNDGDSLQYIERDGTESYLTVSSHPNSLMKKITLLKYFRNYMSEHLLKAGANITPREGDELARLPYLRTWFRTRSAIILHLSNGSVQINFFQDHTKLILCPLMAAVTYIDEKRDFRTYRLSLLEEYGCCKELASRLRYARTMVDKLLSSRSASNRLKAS
Description: A full-length human CDC25C clone was isolated by PCR from HeLa mRNA and was inserted on a BamHI-HindIII fragment into pRsetA. The amino terminal fragment of CDC25C (encoding residues 1-300) was excised from this vector and inserted into pET28a (between the NcoI and BamHI sites). Expression was under the control of the T7 promoter, and the encoded protein contained a His6 tag at the carboxyl terminus. The vector was transformed into E. coli strain BRL(DE3) pLysS for expression experiments. CDC25C was expressed in BL21(DE3) RIL bacteria cells, grown in LB media at 37° C. until OD600nm of 0.6 was reached. The expression was induced with 1 mM IPTG and the bacterial culture was grown further for 3 h. The bacteria were harvested by centrifugation and the cell pellet was re-suspended in 50 mM Tris pH 7.5 and 10% sucrose, flash frozen, and stored at −70° C. until used. CDC25C protein was purified from E. coli inclusion bodies. The inclusion bodies were isolated in a buffer (50 mM Tris pH 8.0, 2 mM EDTA, 100 mM NaCl, 0.5% triton X-100). After denaturation in the presence of 6 M urea, the protein was refolded via slow dialysis of the urea. The protein was stored in 25 mM Tris pH 8.0, 100 mM NaCl, 1 mM DTT, 1 mM EDTA and 10% glycerol at −70° C. until used.
A full-length human PLK1 (XM—047240) (amino acids 1-603) clone was amplified from a foetal lung cDNA library using primers incorporating restriction enzyme sites. […] The 3′ primer ([…]) incorporated a stop codon prior to the EcoR1 site. The PCR product was cloned into the Nhe1/EcoR1 sites of a baculovirus expression vector, pSSP 1. […] Cells were only used for expression in logarithmic growth phase. […] The flasks were incubated at 27° C., with shaking at 100 r.p.m. for 48 h. On harvest, cell density and viability was determined, the cultures spun down at 2500 r.p.m. for 5 min and washed with ice-cold phosphate-buffered saline. The wash was re-spun at the same speed and the pellet was snap frozen. PLK1 protein was purified on a metal affinity column.
PLK1 protein kinase assays were carried out using a 96-well plate format by incubating CDC25C (2 μg/well) with PLK1 (1 μg/well) in 20 mM Tris/HCl buffer pH 7.5, supplemented with 25 mM β-glycerophosphate, 5 mM EGTA, 1 mM DTT and 1 mM NaVO3. Serial dilutions of test compound in assay buffer were added. […] The reaction mixture was incubated at 30° C. for 1 h, then stopped with 75 mM aq orthophosphoric acid, transferred onto a 96-well P81 filter plate (Whatman), dried, and the extent of CDC25C phosphorylation was assessed by scintillation counting using a Packard TopCount plate reader. The raw assay data was analysed by non-linear regression analysis parameters and IC50 values were determined using the equation: y=A+((B−A)/(1+((C/x)ˆD))), where y is % inhibition, A is minimum inhibition, B is maximum inhibition, C is EC50, and D is the slope factor.

U2OS = assay: 72-h MTT cellular proliferation assay, U2OS; format: cell-based; conditions: Homo sapiens, read-out: Anti-proliferative activity on tumour cell lines (MTT assay) U2OS IC50
Procedure: as §1

MCF-7 = assay: 72-h MTT cellular proliferation assay, MCF-7; format: cell-based; conditions: Homo sapiens, MCF7; MCF-7, 72 h; read-out: Anti-proliferative activity on tumour cell lines (MTT assay) MCF-7 IC50
Procedure: as §1

HELA = assay: 72-h MTT cellular proliferation assay, HELA; format: cell-based; conditions: Homo sapiens, read-out: Anti-proliferative activity on tumour cell lines (MTT assay) HELA IC50
Procedure: as §1

| SMILES | IC50 (A549) | IC50 (human PLK1; 100 μM ATP) | IC50 (U2OS) | IC50 (MCF-7) | melting point | IC50 (HELA) | IC50 (human PLK1; kinase assay at 10 μM ATP) |
| --- | --- | --- | --- | --- | --- | --- | --- |
| O=C(NO)c1sc2c([N+](=O)[O-])cc(F)cc2[n+]1[O-] [Compound 1g, 5-Fluoro-7-nitro-3-oxy-benzothiazole-2-carboxylic acid hydroxyamide] | 7.7 ± 2.9 µM | 67 ± 7 µM | 7.2 ± 3.6 µM | 6.1 ± 1.1 µM | 224 to 225 °C | 14 ± 5 µM | – |
| O=C(NO)c1sc2c([N+](=O)[O-])cc(C(F)(F)F)cc2[n+]1[O-] [Compound 1e, 7-Nitro-3-oxy-5-trifluoromethyl-benzothiazole-2-carboxylic acid hydroxyamide] | 13.3 ± 0.6 µM | 50 to 100 µM | 29.4 ± 1.2 µM | 9 ± 1 µM | 230 to 231 °C | 21 ± 4 µM | – |
| O=[N+]([O-])c1cc(C(F)(F)F)cc2c1sc(O)[n+]2[O-] [Compound 1i, 7-Nitro-3-oxy-5-trifluoromethyl-benzothiazol-2-ol] | 48 ± 5 µM | 39 µM | 88 ± 10 µM | 35 ± 2 µM | – | 56 ± 2 µM | – |
| NC(=O)c1sc2c([N+](=O)[O-])cc(SC(F)(F)F)cc2[n+]1[O-] [Compound 1j, 7-Nitro-3-oxy-5-trifluoromethylsulfanyl-benzothiazole-2-carboxylic acid amide] | 4 ± 1.8 µM | – | 8.2 ± 0.3 µM | 2.5 ± 1 µM | 255 to 256 °C | 6 ± 0.8 µM | – |
| NC(=O)c1sc2c([N+](=O)[O-])cc(C(F)(F)F)cc2[n+]1[O-] [Compound 1a, 7-Nitro-3-oxy-5-trifluoromethyl-benzothiazole-2-carboxylic acid amide] | 24 ± 3 µM | – | 47 ± 7 µM | 12.6 ± 6.3 µM | – | 16 ± 8 µM | – |
| NC(=O)c1sc2c([N+](=O)[O-])cc(F)cc2[n+]1[O-] [Compound 1f, 5-Fluoro-7-nitro-3-oxy-benzothiazole-2-carboxylic acid amide] | 3.9 ± 0.2 µM | – | 11.5 ± 2 µM | 1.6 ± 0.2 µM | – | 10.2 ± 2.4 µM | 50 to 100 µM |
| O=C(c1sc2c([N+](=O)[O-])cc(C(F)(F)F)cc2[n+]1[O-])N1CCCC1 [Compound 1b, (7-Nitro-3-oxy-5-trifluoromethyl-benzothiazol-2-yl)-pyrrolidin-1-yl-methanone] | 5.2 µM | 56 ± 19 µM | 16 µM | – | – | 12 µM | – |
| N#Cc1cc([N+](=O)[O-])c2sc(C(N)=O)[n+]([O-])c2c1 [Compound 1d, 5-Cyano-7-nitro-3-oxy-benzothiazole-2-carboxylic acid amide] | 4.2 ± 1.5 µM | 10 ± 7 µM | 6.7 ± 1.2 µM | 2 ± 2 µM | – | 6.6 ± 0.8 µM | – |
| N#Cc1sc2c([N+](=O)[O-])cc(C(F)(F)F)cc2[n+]1[O-] [Compound 1h, 7-Nitro-3-oxy-5-trifluoromethyl-benzothiazole-2-carbonitrile] | 10 ± 0.08 µM | 21 µM | 9.5 ± 1.7 µM | 2.1 ± 1.5 µM | – | 10.2 ± 3.3 µM | – |
| NNC(=O)c1sc2c([N+](=O)[O-])cc(C(F)(F)F)cc2[n+]1[O-] [Compound 1c, 7-Nitro-3-oxy-5-trifluoromethyl-benzothiazole-2-carboxylic acid hydrazide] | 21 ± 3 µM | > 100 µM | 35 ± 3 µM | 19 ± 16 µM | 229 to 230 °C | 16 ± 10 µM | – |
